According to US10822337B2, “TGF-β inhibitorC” (Rigel Pharmaceuticals, Inc., priority 2015, dated 2020):

Legend:
[1] = system: GDF8 signaling (GDF pSMAD, MPC11); assay: AlphaScreen SureFire SMAD3 (p-Ser423/425) assay, inhibition of GDF8 signaling; assay type: cell-based; details: Mus musculus, MPC-11, p-SMAD-3 (Ser423/425) in cell lysate after GDF8 stimulation
[2] = system: TGF-β signaling (TGF-β pSMAD, MPC-11); assay: AlphaScreen SureFire SMAD3 (p-Ser423/425) assay, inhibition of TGF-β signaling; assay type: cell-based; details: Mus musculus, p-SMAD-3 (Ser423/425) in cell lysate after TGF-β stimulation
Outline: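 Phosphorylation of endogenous SMAD-3 at Ser423/425 was quantified with an AlphaScreen SureFire assay. Cells were exposed to compound for about 10 minutes, stimulated with TGF-β, and lysed in 1× Lysis Buffer. Lysate (5 μL) was combined with Reaction/Activation buffer plus Acceptor beads for 2 hours, then Donor beads for 1½ hours, and read on a plate reader.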

| SMILES | IC50 [1] [nM] | IC50 [2] [nM] |
| --- | --- | --- |
| Cc1cc(-c2nn3c(c2-c2ccc4nccnc4c2)CCC3)c(F)cc1F [Compound 184, 6-(2-(2,4-Difluoro-5-methylphenyl)-5,6-dihydro-4H-pyrrolo[1,2-b]pyrazol-3-yl)quinoxaline] | 139 | 302 |
| Cc1cc(-c2nn3c(c2-c2ccc4ncnn4c2)CCC3)c(F)cc1F [Compound 185, 6-(2-(2,4-Difluoro-5-methylphenyl)-5,6-dihydro-4H-pyrrolo[1,2-b]pyrazol-3-yl)-[1,2,4]triazolo[1,5-a]pyridine] | 38.5 | 69.6 |
| Fc1cc(F)c(-c2nn3c(c2-c2ccc4[nH]ncc4c2)CCC3)cc1Cl [Compound 186, 5-(2-(5-Chloro-2,4-difluorophenyl)-5,6-dihydro-4H-pyrrolo[1,2-b]pyrazol-3-yl)-1H-indazole] | 106 | 350 |
| Fc1cc(F)c(-c2nn3c(c2-c2ccc4cn[nH]c4c2)CCC3)cc1Cl [Compound 187, 6-(2-(5-Chloro-2,4-difluorophenyl)-5,6-dihydro-4H-pyrrolo[1,2-b]pyrazol-3-yl)-1H-indazole] | 135 | 656 |
| Fc1cc(F)c(-c2nn3c(c2-c2ccc4nccn4c2)CCC3)cc1Cl [Compound 188, 6-(2-(5-Chloro-2,4-difluorophenyl)-5,6-dihydro-4H-pyrrolo[1,2-b]pyrazol-3-yl)imidazo[1,2-a]pyridine] | 63 | 81.7 |
| Fc1cc(F)c(-c2nn3c(c2-c2ccc4ncsc4c2)CCC3)cc1Cl [Compound 189, 6-(2-(5-Chloro-2,4-difluorophenyl)-5,6-dihydro-4H-pyrrolo[1,2-b]pyrazol-3-yl)benzo[d]thiazole] | 130 | 232 |
| Fc1cc(F)c(-c2nn3c(c2-c2ccc4ncccc4c2)CCC3)cc1Cl [Compound 190, 6-(2-(5-Chloro-2,4-difluorophenyl)-5,6-dihydro-4H-pyrrolo[1,2-b]pyrazol-3-yl)quinoline] | 272 | 872 |
| Fc1cc(F)c(-c2nn3c(c2-c2ccc4nccnc4c2)CCC3)cc1Cl [Compound 191, 6-(2-(5-Chloro-2,4-difluorophenyl)-5,6-dihydro-4H-pyrrolo[1,2-b]pyrazol-3-yl)quinoxaline] | 74 | 212 |
| Fc1cc(F)c(-c2nn3c(c2-c2ccc4ncnn4c2)CCC3)cc1Cl [Compound 192, 6-(2-(5-Chloro-2,4-difluorophenyl)-5,6-dihydro-4H-pyrrolo[1,2-b]pyrazol-3-yl)-[1,2,4]triazolo[1,5-a]pyridine] | 43.6 | 66 |
| Fc1ccc(F)c(-c2nn3c(c2-c2ccc4cn[nH]c4c2)CCC3)c1 [Compound 193, 6-(2-(2,5-Difluorophenyl)-5,6-dihydro-4H-pyrrolo[1,2-b]pyrazol-3-yl)-1H-indazole] | 371 | 2590 |
| Fc1ccc(F)c(-c2nn3c(c2-c2ccc4nccn4c2)CCC3)c1 [Compound 194, 6-(2-(2,5-Difluorophenyl)-5,6-dihydro-4H-pyrrolo[1,2-b]pyrazol-3-yl)imidazo[1,2-a]pyridine] | 177 | 909 |
| Fc1ccc(F)c(-c2nn3c(c2-c2ccc4ncsc4c2)CCC3)c1 [Compound 195, 6-(2-(2,5-Difluorophenyl)-5,6-dihydro-4H-pyrrolo[1,2-b]pyrazol-3-yl)benzo[d]thiazole] | 78.7 | 376 |
| Fc1ccc(F)c(-c2nn3c(c2-c2ccc4ncccc4c2)CCC3)c1 [Compound 196, 6-(2-(2,5-Difluorophenyl)-5,6-dihydro-4H-pyrrolo[1,2-b]pyrazol-3-yl)quinoline] | 862 | 5260 |
| Fc1ccc(F)c(-c2nn3c(c2-c2ccc4nccnc4c2)CCC3)c1 [Compound 197, 6-(2-(2,5-Difluorophenyl)-5,6-dihydro-4H-pyrrolo[1,2-b]pyrazol-3-yl)quinoxaline] | 59 | 608 |
| Fc1ccc(F)c(-c2nn3c(c2-c2ccc4ncnn4c2)CCC3)c1 [Compound 198, 6-(2-(2,5-Difluorophenyl)-5,6-dihydro-4H-pyrrolo[1,2-b]pyrazol-3-yl)-[1,2,4]triazolo[1,5-a]pyridine] | 26.4 | 334 |
| COc1cnc2ccc(-c3c(-c4cc(F)ccc4F)nn4c3CCC4)cc2n1 [Compound 199, 7-(2-(2,5-difluorophenyl)-5,6-dihydro-4H-pyrrolo[1,2-b]pyrazol-3-yl)-2-methoxyquinoxaline] | 428 | 1370 |
| COCCOc1cnc2ccc(-c3c(-c4cc(F)ccc4F)nn4c3CCC4)cc2n1 [Compound 200, 7-(2-(2,5-difluorophenyl)-5,6-dihydro-4H-pyrrolo[1,2-b]pyrazol-3-yl)-2-(2-methoxyethoxy)quinoxaline] | 274 | 952 |
| Fc1ccccc1-c1nn2c(c1-c1ccc3ncsc3c1)CCC2 [Compound 201, 6-(2-(2-fluorophenyl)-5,6-dihydro-4H-pyrrolo[1,2-b]pyrazol-3-yl)benzo[d]thiazole] | 225 | 1460 |
